Patent US11179367B2, “Pharmaceutical compositions for treating cystic fibrosis” (Vertex Pharmaceuticals Incorporated, priority 2018, dated 2021)

Experiments:
[1] = target: T1, F508del CFTR in NIH3T3 cells (Homo sapiens, UniProt P13569, DEL508-508); assay: Membrane potential optical assay (correction assay) for F508del-CFTR modulators; type: cell-based; conditions: NIH3T3 cells expressing F508del
T1 construct: expressed in transfected cells
Excerpt: Membrane Potential Optical Methods for Assaying Properties of F508del-CFTR Modulators
An optical assay was employed to measure changes in membrane potential to determine the CFTR modulator properties of compounds. The assay utilized fluorescent voltage sensing dyes to measure changes in membrane potential using a fluorescent plate reader (e.g., FLIPR III, Molecular Devices, Inc.) as a readout for increase in functional F508del in NIH 3T3 cells. The driving force for the response was the creation of a chloride ion gradient in conjunction with channel activation and concurrent with compound treatment by a single liquid addition step after the cells had previously been loaded with a voltage sensing dye.
NIH3T3 mouse fibroblasts stably expressing F508del were used for optical measurements of membrane potential. The cells were maintained at 37° C. in 5% CO2 and 90% humidity in Dulbecco's modified Eagle's medium supplemented with 2 mM glutamine, 10% fetal bovine serum, 1×NEAA, β-ME, 1×pen/strep, and 25 mM HEPES in 175 cm^2 culture flasks. […] The cells were then activated and treated with Compound I. After 18-24 hours, fluorescence from the voltage sensing dye in the cells was measured to assess changes in the membrane potential as a read out for increase in functional F508del CFTR in the NIH3T3 cells.

[2] = target: T2, F508del-CFTR in human bronchial epithelial (HBE) cells (Homo sapiens, UniProt P13569, DEL508-508); assay: Ussing chamber assay, chloride current in airway epithelial (HBE) cells expressing F508del; type: cell-based
T2 construct: endogenous in cells; host or cells: primary CF human bronchial epithelial (HBE) cells
T2 sequence (P13569 with tags, fused parts or gaps DEL508-508): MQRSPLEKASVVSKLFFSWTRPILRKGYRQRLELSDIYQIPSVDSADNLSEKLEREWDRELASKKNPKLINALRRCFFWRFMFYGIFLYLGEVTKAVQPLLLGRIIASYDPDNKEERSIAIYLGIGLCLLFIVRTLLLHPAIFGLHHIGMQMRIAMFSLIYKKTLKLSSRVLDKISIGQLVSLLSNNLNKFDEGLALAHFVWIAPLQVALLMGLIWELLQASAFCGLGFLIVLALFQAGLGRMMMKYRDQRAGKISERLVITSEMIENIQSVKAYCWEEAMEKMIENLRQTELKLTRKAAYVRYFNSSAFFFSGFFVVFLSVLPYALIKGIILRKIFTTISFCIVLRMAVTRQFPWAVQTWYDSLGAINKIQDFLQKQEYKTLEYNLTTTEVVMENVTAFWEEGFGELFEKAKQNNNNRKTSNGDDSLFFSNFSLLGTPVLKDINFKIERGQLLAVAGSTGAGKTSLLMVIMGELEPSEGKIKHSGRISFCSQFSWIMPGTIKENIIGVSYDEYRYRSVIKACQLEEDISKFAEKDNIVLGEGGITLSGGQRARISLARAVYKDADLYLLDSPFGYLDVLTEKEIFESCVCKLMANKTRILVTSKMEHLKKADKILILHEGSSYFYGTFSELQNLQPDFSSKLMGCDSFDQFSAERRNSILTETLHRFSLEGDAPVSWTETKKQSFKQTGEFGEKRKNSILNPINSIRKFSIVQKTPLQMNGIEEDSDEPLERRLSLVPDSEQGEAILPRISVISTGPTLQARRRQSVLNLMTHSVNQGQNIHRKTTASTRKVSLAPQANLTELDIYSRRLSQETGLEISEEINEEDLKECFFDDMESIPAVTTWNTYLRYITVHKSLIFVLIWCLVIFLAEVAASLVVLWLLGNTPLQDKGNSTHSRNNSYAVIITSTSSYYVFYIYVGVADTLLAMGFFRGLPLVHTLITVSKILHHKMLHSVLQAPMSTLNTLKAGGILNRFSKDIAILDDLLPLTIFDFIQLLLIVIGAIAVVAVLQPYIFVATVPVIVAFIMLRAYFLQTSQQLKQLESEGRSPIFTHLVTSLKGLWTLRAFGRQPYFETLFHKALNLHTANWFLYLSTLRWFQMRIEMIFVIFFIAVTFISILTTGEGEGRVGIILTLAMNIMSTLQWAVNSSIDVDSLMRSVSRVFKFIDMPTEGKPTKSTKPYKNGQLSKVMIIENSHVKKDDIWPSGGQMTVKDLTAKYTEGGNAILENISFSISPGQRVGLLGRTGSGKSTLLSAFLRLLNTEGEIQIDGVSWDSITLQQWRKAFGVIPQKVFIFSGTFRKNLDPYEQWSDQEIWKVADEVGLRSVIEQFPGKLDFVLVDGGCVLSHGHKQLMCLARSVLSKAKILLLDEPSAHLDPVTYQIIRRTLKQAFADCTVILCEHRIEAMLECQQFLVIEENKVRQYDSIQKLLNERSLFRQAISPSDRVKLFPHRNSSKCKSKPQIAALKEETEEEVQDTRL
Experimental: Ussing chamber experiments were performed on polarized airway epithelial cells expressing F508del to further characterize the F508del modulators identified in the optical assay above. Non-CF and CF airway epithelia were isolated from bronchial tissue, cultured using methods well known in the art, and plated onto Costar® Snapwell™ filters that were precoated with NIH3T3-conditioned media. After four days the apical media was removed and the cells were grown at an air liquid interface for >14 days prior to use. […] CF-HBE cells were isolated from patients homozygous for F508del (F508del/F508del-HBE) or heterozygous for F508del with a different disease causing mutation on the other allele.
HBE cells grown on Costar® Snapwell™ cell culture inserts were mounted in an Ussing chamber (Physiologic Instruments, Inc., San Diego, Calif.), and the transepithelial resistance and short-circuit current in the presence of a basolateral to apical Cl^− gradient (ISC) were measured using a voltage-clamp system (Department of Bioengineering, University of Iowa, IA). Briefly, HBE cells were examined under voltage-clamp recording conditions (Vhold=0 mV) at 37° C. […]
A basolateral to apical membrane Cl^− concentration gradient was set up as follows. […] Chloride current was measured to assess the increase in functional CFTR in the cell membrane.

[3] = Rat pharmacokinetics, single IV and oral dose; type: in vivo; conditions: male Sprague Dawley rats
Experimental: Compound 1 was also administered to male Sprague Dawley rats at single nominal oral dose (PO) of 3 mg/kg as a solution in 5% NMP, 30% PEG400, 10% TPGS, 5% PVP-K30 at 5 mL/kg dose volume.
The study design, sample tracking, data run design and individual plasma sample concentrations were stored using Watson LIMS software, Version 7.4.2 (Thermo Scientific Inc, Waltham, Mass.). Plasma concentration-time profiles of Compound 1 in Sprague Dawley rats at scheduled (nominal) sampling times were analyzed by noncompartmental pharmacokinetic methods using PK function within Watson LIMS software, Version 7.4.2 (Thermo Scientific Inc, Waltham, Mass.). Key pharmacokinetic parameters such as “area under the curve” (AUC), from the time of drug administration, time zero, extrapolated to infinity, clearance (CL), and Percent of oral bioavailability (% F) were determined. The AUC values were calculated using the linear trapezoidal rule.
In Table 21 below, Compound I is shown to have advantageous rat oral exposure (AUC) and oral bioavailability.

F508del-CFTR protein = F508del-CFTR protein (Homo sapiens, UniProt P13569, DEL508-508); assay: CFTR processing and trafficking to the cell surface (Example 15); type: cell-based
F508del-CFTR protein, sequence (P13569 with tags, fused parts or gaps DEL508-508): as above

CFTR = CFTR (Homo sapiens, UniProt P13569); conditions: disclosed in PCT Application No. PCT/US2017/065425; read-out: EC50 as CFTR modulator; cited from earlier work
[4] = Solid form assessment of Compound I (thermodynamic stability); type: physicochemical; conditions: among solid forms of Compound I
Excerpt: In some embodiments, Compound I is Form A. In some embodiments, crystalline Form A is characterized by an X-ray powder diffractogram having a signal at least one two-theta value chosen from 6.6±0.2, 7.6±0.2, 9.6±0.2, 12.4±0.2, 13.1±0.2, 15.2±0.2, 16.4±0.2, 18.2±0.2, and 18.6±0.2. In some embodiments, crystalline Form A is characterized by an X-ray powder diffractogram having a signal at at least three two-theta values chosen from 6.6±0.2, 7.6±0.2, 9.6±0.2, 12.4±0.2, 13.1±0.2, 15.2±0.2, 16.4±0.2, 18.2±0.2, and 18.6±0.2. In some embodiments, crystalline Form A is characterized by an X-ray powder diffractograph having a signal at at least three two-theta values chosen from 6.6±0.2, 9.6±0.2, 13.1±0.2, 15.2±0.2, 18.2±0.2, and 18.6±0.2. In some embodiments, crystalline Form A is characterized by an X-ray powder diffractograph having a signal at three two-theta values of 6.6±0.2, 13.1±0.2, 18.2±0.2. In some embodiments, crystalline Form A is characterized by an X-ray powder diffractograph having a signal at six two-theta values of 6.6±0.2, 9.6±0.2, 13.1±0.2, 15.2±0.2, 18.2±0.2, and 18.6±0.2. In some embodiments, Crystalline Form A is characterized by an X-ray powder diffractogram substantially similar to that in FIG. 4A. In some embodiments, Crystalline Form A is characterized by an X-ray powder diffractogram substantially similar to that in FIG. 4B.

[5] = Bioavailability of crystalline Form A of Compound I; type: in vivo

T1 sequence (P13569 with tags, fused parts or gaps DEL508-508): as above

## Cc1nn(C)cc1S(=O)(=O)NC(=O)c1ccc(-n2ccc(OCC(C)(C)C(F)(F)F)n2)nc1N1C[C@@H](C)CC1(C)C [Compound I, N-(1,3-dimethylpyrazol-4-yl)sulfonyl-6-[3-(3,3,3-trifluoro-2,2-dimethyl-propoxy)pyrazol-1-yl]-2-[(4 S)-2,2,4-trimethylpyrrolidin-1-yl]pyridine-3-carboxamide]
[1]; 18-24 hours treatment
  EC50: < 3 µM
[1]; relative to Compound II, read-out: % Efficacy relative to Compound II
  Emax: ≥ 100%
[2]
  EC50: < 2 µM
[2]; % Efficacy
  HBE Max Eff (%): +++ (“+++” means >100%)
[3]; PO 3 mg/kg
  rat oral exposure (AUC): advantageous
[3]; PO 3 mg/kg vs IV 3.0 mg/kg
  oral bioavailability: advantageous
[3]; single nominal oral dose 3 mg/kg, dose-normalised
  Rat PO AUC/dose: 9.4 ± 0.7 µg·h/mL/mg/kg
[3]; rat, plasma, oral bioavailability, PO 3 mg/kg vs IV 3.0 mg/kg, read-out: Rat % F
  bioavailability: 84%
[3]; rat, plasma, single nominal IV dose 3.0 mg/kg, read-out: Rat iv CL
  clearance: 1.6 ± 0.4 mL/min/kg
[3]; rat, plasma, single nominal oral dose 3 mg/kg, AUC extrapolated to infinity
  AUC: 23500 ± 1700 ng·h/mL
F508del-CFTR protein
  CFTR corrector activity (processing and trafficking of F508del-CFTR, enhanced chloride transport): potent, efficacious, and selective
CFTR
  EC50: 0.07 µM

## Cc1nn(C)cc1S(=O)(=O)NC(=O)c1ccc(-n2ccc(OCC(C)(C)C(F)(F)F)n2)nc1N1C[C@@H](C)CC1(C)C [Crystalline Form A, N-(1,3-dimethylpyrazol-4-yl)sulfonyl-6-[3-(3,3,3-trifluoro-2,2-dimethyl-propoxy)pyrazol-1-yl]-2-[(4 S)-2,2,4-trimethylpyrrolidin-1-yl]pyridine-3-carboxamide]
[4]
  thermodynamic stability of solid form: most thermodynamically stable form
[5]
  bioavailability: good
